# Source: article PMC3914206
# Columns and labels:
# panel of 442 kinases [1] = biological target: T1, panel of 442 kinases (Homo sapiens, UniProt Q13464); assay type: binding; settings: Compound Concentration 10 µM
# T1 construct: purchased KINOMEscan
# Excerpt: (§1) We assessed the selectivity of members of this scaffold using the KINOMEscan methodology across a near comprehensive panel of 442 kinases [[18,27]].
# panel of 442 kinases [2] = biological target: T2, panel of 442 kinases (Homo sapiens, UniProt Q8WXR4); assay type: binding; settings: Compound Concentration 10 µM
# T2 construct: purchased KINOMEscan
# T2 sequence (Q8WXR4 1-1341): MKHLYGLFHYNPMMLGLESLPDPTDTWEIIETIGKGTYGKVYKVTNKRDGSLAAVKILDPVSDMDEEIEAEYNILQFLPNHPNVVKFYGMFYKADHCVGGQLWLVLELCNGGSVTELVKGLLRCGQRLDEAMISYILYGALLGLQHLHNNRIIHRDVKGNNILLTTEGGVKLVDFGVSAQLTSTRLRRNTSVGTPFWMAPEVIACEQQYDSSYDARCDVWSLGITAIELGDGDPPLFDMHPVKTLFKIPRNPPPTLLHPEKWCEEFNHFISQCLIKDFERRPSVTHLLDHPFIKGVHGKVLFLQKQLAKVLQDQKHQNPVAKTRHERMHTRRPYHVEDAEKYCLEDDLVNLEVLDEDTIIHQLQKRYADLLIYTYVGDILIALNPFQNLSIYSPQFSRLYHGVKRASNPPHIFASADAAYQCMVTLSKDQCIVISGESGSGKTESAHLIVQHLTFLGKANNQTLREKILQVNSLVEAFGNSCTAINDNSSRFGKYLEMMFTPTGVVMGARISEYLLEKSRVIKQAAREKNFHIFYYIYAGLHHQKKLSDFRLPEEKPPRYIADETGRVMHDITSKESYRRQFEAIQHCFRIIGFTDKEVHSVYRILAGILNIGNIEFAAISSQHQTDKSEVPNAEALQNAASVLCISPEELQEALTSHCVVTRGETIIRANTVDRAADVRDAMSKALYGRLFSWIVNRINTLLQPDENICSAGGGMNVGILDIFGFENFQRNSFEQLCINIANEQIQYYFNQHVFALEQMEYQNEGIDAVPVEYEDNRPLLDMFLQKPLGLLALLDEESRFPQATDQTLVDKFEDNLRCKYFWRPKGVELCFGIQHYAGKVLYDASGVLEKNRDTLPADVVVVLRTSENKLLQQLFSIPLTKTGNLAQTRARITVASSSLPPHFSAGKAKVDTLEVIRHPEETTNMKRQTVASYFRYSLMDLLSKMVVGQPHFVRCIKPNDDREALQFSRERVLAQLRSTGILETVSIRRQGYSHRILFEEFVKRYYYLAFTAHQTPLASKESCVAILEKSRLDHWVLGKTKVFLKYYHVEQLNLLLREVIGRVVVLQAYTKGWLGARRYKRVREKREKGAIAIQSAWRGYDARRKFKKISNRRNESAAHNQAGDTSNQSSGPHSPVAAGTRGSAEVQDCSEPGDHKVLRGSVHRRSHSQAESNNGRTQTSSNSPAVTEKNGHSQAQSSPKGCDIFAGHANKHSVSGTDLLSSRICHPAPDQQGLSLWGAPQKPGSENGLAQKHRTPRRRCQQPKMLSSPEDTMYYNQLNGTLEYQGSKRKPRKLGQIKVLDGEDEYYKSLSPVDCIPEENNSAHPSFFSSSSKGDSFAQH
# Excerpt: as §1
# T1 sequence (Q13464 whole entry): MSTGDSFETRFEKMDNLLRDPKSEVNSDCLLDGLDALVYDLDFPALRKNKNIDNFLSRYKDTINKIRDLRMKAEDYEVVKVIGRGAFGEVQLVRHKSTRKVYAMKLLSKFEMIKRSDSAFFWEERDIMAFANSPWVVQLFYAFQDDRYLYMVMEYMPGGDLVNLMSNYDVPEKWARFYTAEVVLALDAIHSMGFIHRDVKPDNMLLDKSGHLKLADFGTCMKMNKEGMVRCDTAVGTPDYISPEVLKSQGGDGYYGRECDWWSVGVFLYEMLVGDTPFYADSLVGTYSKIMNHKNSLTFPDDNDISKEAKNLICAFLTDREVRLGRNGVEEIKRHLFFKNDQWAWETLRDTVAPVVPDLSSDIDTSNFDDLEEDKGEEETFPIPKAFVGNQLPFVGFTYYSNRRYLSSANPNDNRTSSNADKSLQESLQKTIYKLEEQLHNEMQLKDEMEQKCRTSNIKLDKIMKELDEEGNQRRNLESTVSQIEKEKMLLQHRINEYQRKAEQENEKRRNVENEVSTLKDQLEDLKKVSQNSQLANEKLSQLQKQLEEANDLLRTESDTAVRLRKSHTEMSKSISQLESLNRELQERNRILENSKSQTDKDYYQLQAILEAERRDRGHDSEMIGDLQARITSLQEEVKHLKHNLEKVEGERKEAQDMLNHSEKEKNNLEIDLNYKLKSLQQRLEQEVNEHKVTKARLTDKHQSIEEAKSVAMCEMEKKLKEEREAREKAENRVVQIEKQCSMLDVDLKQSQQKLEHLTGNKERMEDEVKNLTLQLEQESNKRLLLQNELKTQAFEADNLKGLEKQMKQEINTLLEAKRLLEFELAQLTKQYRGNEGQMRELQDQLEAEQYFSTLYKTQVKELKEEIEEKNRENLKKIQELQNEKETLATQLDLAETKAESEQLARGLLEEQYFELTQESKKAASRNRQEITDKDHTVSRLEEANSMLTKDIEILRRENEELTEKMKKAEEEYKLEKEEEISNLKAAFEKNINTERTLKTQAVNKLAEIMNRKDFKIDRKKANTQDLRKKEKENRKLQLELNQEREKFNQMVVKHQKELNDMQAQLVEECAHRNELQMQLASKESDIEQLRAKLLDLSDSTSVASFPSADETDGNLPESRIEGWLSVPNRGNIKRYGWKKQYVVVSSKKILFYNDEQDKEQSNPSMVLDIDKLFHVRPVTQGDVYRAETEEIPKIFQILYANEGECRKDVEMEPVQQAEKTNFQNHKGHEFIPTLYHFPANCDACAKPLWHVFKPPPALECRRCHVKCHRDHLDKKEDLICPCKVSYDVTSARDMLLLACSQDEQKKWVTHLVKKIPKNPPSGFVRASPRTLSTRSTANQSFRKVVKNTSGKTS
SMILES,KINOMEscan: ROCK1 (panel of 442 kinases [1]),KINOMEscan: MYO3B (panel of 442 kinases [2])
CCOc1cc(C(=O)N2CCC(N3CCN(C)CC3)CC2)ccc1Nc1ncc2c(n1)N(C1CCCC1)c1ccccc1C(=O)N2C [Compound 26],77,100
COc1cc(C(=O)N2CCC(N3CCN(C)CC3)CC2)ccc1Nc1ncc2c(n1)N1CCc3cccc(c31)C(=O)N2C [Compound 24],64,76
COc1cc(C(=O)N2CCC(N3CCN(C)CC3)CC2)ccc1Nc1ncc2c(n1)N(C)c1ccccc1C(=O)N2C [15 (LRRK2-IN-1)],100,83
"COc1cc(C(=O)N2CCC(N3CCN(C)CC3)CC2)ccc1Nc1ncc2c(n1)N(C1CCCC1)c1ccccc1C(=O)N2C [Compound 25, 11-cyclopentyl-2-((2-methoxy-4-(4-(4-methylpiperazin-1-yl)piperidine-1-carbonyl)phenyl)amino)-5-methyl-5H-benzo[e]pyrimido[5,4-b][1,4]diazepin-6(11H)-one]",74,100
